Laboratory results published in PubChem BioAssay (NCI).
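Briefly, cells in 96-well plates were exposed to five compound concentrations for 48 h, and endpoints were estimated by linear interpolation. GI50 marks 50% less growth. TGI denotes the concentration required for complete inhibition of growth.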

Tests used:
Assay in all cases: growth of human tumour cells (NCI), 48 h; in the data active = GI50 below about 0.43 µM; inactive = the rest
[1] = test system: M14 melanoma
[2] = test system: A498 renal
[3] = test system: SN12C renal
[4] = test system: RPMI-8226 leukemia
[5] = test system: MDA-MB-231 breast
[6] = test system: HT29 colon
[7] = test system: NCI-H23 lung
[8] = test system: BT-549 breast
[9] = test system: OVCAR-4 ovarian
[10] = test system: NCI/ADR-RES ovarian
[11] = test system: SF-268 CNS
[12] = test system: NCI-H460 lung
[13] = test system: A549 NSCLC
[14] = test system: LOX IMVI melanoma
[15] = test system: MCF7 breast
[16] = test system: 786-0 renal
[17] = test system: SK-MEL-2 melanoma
[18] = test system: UO-31 renal
[19] = test system: U251 CNS
[20] = test system: CAKI-1 renal
[21] = test system: SK-MEL-28 melanoma
[22] = test system: HOP-92 NSCLC
[23] = test system: SW-620 colon
[24] = test system: SR leukemia
[25] = test system: SNB-75 CNS
[26] = test system: EKVX NSCLC
[27] = test system: UACC-62 melanoma
[28] = test system: HCC-2998 colon
[29] = test system: HCT-116 colon
[30] = test system: ACHN renal
[31] = test system: K-562 leukemia
[32] = test system: HCT-15 colon
[33] = test system: IGROV1 ovarian
[34] = test system: MOLT-4 leukemia
[35] = test system: KM12 colon
[36] = test system: OVCAR-5 ovarian
[37] = test system: OVCAR-8 ovarian
[38] = test system: CCRF-CEM leukemia
[39] = test system: SNB-19 CNS
[40] = test system: OVCAR-3 ovarian
[41] = test system: NCI-H522 lung
[42] = test system: TK-10 renal
[43] = test system: UACC-257 melanoma
[44] = test system: MDA-MB-435
[45] = test system: T-47D breast
[46] = test system: RXF 393 renal
[47] = test system: MALME-3M melanoma
[48] = test system: SF-539 CNS
[49] = test system: PC-3 prostate
[50] = test system: DU-145 prostate
[51] = test system: SF-295 CNS
[52] = test system: HOP-62 NSCLC
[53] = test system: HS 578T breast
[54] = test system: HL-60(TB) leukemia
[55] = test system: SK-OV-3 ovarian
[56] = test system: NCI-H226 lung
[57] = test system: COLO 205 colon
[58] = test system: SK-MEL-5 melanoma

c1ccc([P+](c2ccccc2)(c2ccccc2)c2ccc3c4ccc([P+](c5ccccc5)(c5ccccc5)c5ccccc5)c5cccc(c6cccc2c63)c54)cc1
13.5 µM: TGI [7]
inactive: GI50 [1] 1.39 µM | GI50 [2] 0.889 µM | GI50 [3] 1.09 µM | GI50 [4] 0.647 µM | GI50 [5] 2.22 µM | GI50 [6] 1.64 µM | GI50 [7] 2.1 µM | GI50 [8] 0.455 µM | GI50 [9] 1.89 µM | GI50 [10] 9.41 µM | GI50 [11] 0.995 µM | GI50 [12] 0.692 µM | GI50 [13] 0.986 µM | GI50 [14] 2.67 µM | GI50 [15] 1.25 µM | GI50 [16] 3.04 µM | GI50 [17] 2.57 µM | GI50 [18] 2.73 µM | GI50 [19] 0.445 µM | GI50 [20] 6.15 µM | GI50 [21] 1.67 µM | GI50 [22] 1.18 µM | GI50 [23] 1.98 µM | GI50 [24] 1.1 µM | GI50 [25] 0.435 µM | GI50 [26] 1.69 µM | GI50 [27] 1.47 µM | GI50 [28] 2.28 µM | GI50 [29] 1.54 µM | GI50 [30] 3.79 µM | GI50 [31] 0.506 µM | GI50 [32] 5.89 µM | GI50 [33] 1.41 µM | GI50 [34] 2.37 µM | GI50 [35] 0.743 µM | GI50 [36] 2.82 µM | GI50 [37] 1.32 µM | GI50 [38] 2.13 µM | GI50 [39] 0.714 µM | GI50 [40] 1.91 µM | GI50 [41] 1.24 µM | GI50 [42] 4.18 µM | GI50 [43] 2.12 µM | GI50 [44] 0.799 µM | GI50 [45] 0.621 µM | GI50 [46] 2.79 µM | GI50 [48] 0.477 µM | GI50 [49] 1.65 µM | GI50 [50] 0.811 µM | GI50 [51] 1.24 µM | GI50 [52] 0.931 µM | GI50 [53] 0.574 µM | GI50 [54] 2.38 µM
11.9 µM: TGI [40]
7.58 µM: TGI [17]
13.3 µM: TGI [6]
19.3 µM: TGI [34]
7.47 µM: TGI [33]
30.8 µM: TGI [9]
2.56 µM: TGI [47]
3.94 µM: TGI [12]
10.8 µM: TGI [23]
2.69 µM: TGI [8]
4.16 µM: TGI [4]
13.4 µM: TGI [50]
20.7 µM: TGI [14]
5.49 µM: TGI [53]
6.25 µM: TGI [54]
17.9 µM: TGI [19]
7.48 µM: TGI [1]
4.21 µM: TGI [44]
9.98 µM: TGI [5]
14.3 µM: TGI [49]
6.79 µM: TGI [2]
14.2 µM: TGI [15]
6.15 µM: TGI [21]
4.64 µM: TGI [27]
2.32 µM: TGI [48]
8.47 µM: TGI [43]
4.17 µM: TGI [25]
33.3 µM: TGI [38]
25.3 µM: TGI [46]
20 µM: TGI [11]
24.6 µM: TGI [45]
> 100 µM: TGI [10] | TGI [13] | TGI [20] | TGI [24] | TGI [30] | TGI [31] | TGI [32] | TGI [36] | TGI [37] | TGI [42]
active: GI50 [47] 0.412 µM
3.1 µM: TGI [35]
35.2 µM: TGI [26]
10.4 µM: TGI [29]
13.7 µM: TGI [3] | TGI [41]
8.51 µM: TGI [28]
25.8 µM: TGI [52]
5.44 µM: TGI [22]
28.8 µM: TGI [16]
78.3 µM: TGI [18]
5.36 µM: TGI [51]
13.1 µM: TGI [39]

Clc1ccc2c(c1)C(Br)c1cc(Cl)cc(Cl)c1-2 (configuration not stated)
41.6 µM: TGI [8]
72.3 µM: TGI [58]
> 100 µM: TGI [2] | TGI [3] | TGI [4] | TGI [5] | TGI [6] | TGI [55] | TGI [9] | TGI [10] | TGI [11] | TGI [12] | TGI [13] | TGI [14] | TGI [15] | TGI [16] | TGI [17] | TGI [18] | TGI [19] | TGI [20] | TGI [21] | TGI [22] | TGI [23] | TGI [24] | TGI [25] | TGI [26] | TGI [27] | TGI [28] | TGI [29] | TGI [30] | TGI [31] | TGI [32] | TGI [33] | TGI [34] | TGI [35] | TGI [36] | TGI [37] | TGI [39] | TGI [40] | TGI [41] | TGI [42] | TGI [43] | TGI [44] | TGI [45] | TGI [57] | TGI [47] | TGI [48] | TGI [49] | TGI [50] | TGI [51] | TGI [52] | TGI [53] | TGI [54]
36.8 µM: TGI [7]
34.8 µM: TGI [56]
inactive: GI50 [1] 3.35 µM | GI50 [2] > 100 µM | GI50 [3] 3.84 µM | GI50 [4] 38.9 µM | GI50 [5] 30.8 µM | GI50 [6] > 100 µM | GI50 [7] 2.83 µM | GI50 [8] 3.56 µM | GI50 [55] > 100 µM | GI50 [9] 71.5 µM | GI50 [10] 42.7 µM | GI50 [11] 29.9 µM | GI50 [56] 2.75 µM | GI50 [12] > 100 µM | GI50 [13] > 100 µM | GI50 [14] 2.46 µM | GI50 [15] 20.5 µM | GI50 [16] > 100 µM | GI50 [17] 33.8 µM | GI50 [18] 67.7 µM | GI50 [19] > 100 µM | GI50 [20] 56.4 µM | GI50 [21] > 100 µM | GI50 [22] 12.4 µM | GI50 [23] 5.46 µM | GI50 [24] 4.34 µM | GI50 [25] 19 µM | GI50 [26] 2.82 µM | GI50 [27] 39.9 µM | GI50 [28] > 100 µM | GI50 [29] 8.74 µM | GI50 [30] > 100 µM | GI50 [31] 8.74 µM | GI50 [32] 74.5 µM | GI50 [33] 18.6 µM | GI50 [34] 10.8 µM | GI50 [35] > 100 µM | GI50 [36] > 100 µM | GI50 [37] 28.6 µM | GI50 [39] > 100 µM | GI50 [40] > 100 µM | GI50 [41] 2.53 µM | GI50 [42] > 100 µM | GI50 [43] > 100 µM | GI50 [44] 5.19 µM | GI50 [45] > 100 µM | GI50 [46] 27 µM | GI50 [57] > 100 µM | GI50 [47] 3.49 µM | GI50 [48] 82.5 µM | GI50 [49] > 100 µM | GI50 [50] > 100 µM | GI50 [51] > 100 µM | GI50 [58] 6.81 µM | GI50 [52] > 100 µM | GI50 [53] > 100 µM | GI50 [54] > 100 µM
86.6 µM: TGI [46]
35.7 µM: TGI [1]
